Results on 10 compounds are retold here after ChEMBL document CHEMBL1909607, “Synthesis and radioligand binding studies of bis-(8-isopropyl-isoquinolinium) derivatives as ligands for apamin-sensitive sites on cloned SK2 and SK3 channels” (Bioorg Med Chem Lett, 2011).

What all share (type): cell-based
The target in experiment [1] is T1, Small conductance calcium-activated potassium channel protein 2 (Homo sapiens, UniProt Q9H2S1). The experiment is described as follows: Inhibition of cloned SK2 channel expressed in human HEK293 cells at 10 uM.
T1 sequence (Q9H2S1 whole entry): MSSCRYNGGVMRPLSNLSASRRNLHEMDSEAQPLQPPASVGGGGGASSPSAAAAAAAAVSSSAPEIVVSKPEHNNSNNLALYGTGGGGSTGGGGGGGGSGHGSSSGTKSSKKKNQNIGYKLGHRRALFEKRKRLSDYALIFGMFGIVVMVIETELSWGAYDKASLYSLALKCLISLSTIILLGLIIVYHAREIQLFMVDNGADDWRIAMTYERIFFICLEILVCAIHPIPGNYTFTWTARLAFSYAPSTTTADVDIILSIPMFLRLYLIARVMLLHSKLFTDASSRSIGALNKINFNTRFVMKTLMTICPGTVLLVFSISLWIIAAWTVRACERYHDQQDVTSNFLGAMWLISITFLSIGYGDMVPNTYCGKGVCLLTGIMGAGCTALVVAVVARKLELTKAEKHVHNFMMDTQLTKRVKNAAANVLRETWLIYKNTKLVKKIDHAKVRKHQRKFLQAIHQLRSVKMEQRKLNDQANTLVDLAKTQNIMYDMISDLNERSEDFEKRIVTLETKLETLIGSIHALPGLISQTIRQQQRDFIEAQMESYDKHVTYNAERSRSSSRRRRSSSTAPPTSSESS
Experiment [2] deals with T1, Small conductance calcium-activated potassium channel protein 2. The experiment is described as follows: Displacement of [125I]-apamin from cloned SK2 channel expressed in human HEK293 cells after 1 hr by liquid scintillation counting.
The target in experiment [3] is T2, Small conductance calcium-activated potassium channel protein 3 (Homo sapiens, UniProt Q9UGI6). The experiment is described as follows: Displacement of [125I]-apamin from cloned SK3 channel expressed in human HEK293 cells after 1 hr by liquid scintillation counting.
T2 sequence (Q9UGI6 whole entry): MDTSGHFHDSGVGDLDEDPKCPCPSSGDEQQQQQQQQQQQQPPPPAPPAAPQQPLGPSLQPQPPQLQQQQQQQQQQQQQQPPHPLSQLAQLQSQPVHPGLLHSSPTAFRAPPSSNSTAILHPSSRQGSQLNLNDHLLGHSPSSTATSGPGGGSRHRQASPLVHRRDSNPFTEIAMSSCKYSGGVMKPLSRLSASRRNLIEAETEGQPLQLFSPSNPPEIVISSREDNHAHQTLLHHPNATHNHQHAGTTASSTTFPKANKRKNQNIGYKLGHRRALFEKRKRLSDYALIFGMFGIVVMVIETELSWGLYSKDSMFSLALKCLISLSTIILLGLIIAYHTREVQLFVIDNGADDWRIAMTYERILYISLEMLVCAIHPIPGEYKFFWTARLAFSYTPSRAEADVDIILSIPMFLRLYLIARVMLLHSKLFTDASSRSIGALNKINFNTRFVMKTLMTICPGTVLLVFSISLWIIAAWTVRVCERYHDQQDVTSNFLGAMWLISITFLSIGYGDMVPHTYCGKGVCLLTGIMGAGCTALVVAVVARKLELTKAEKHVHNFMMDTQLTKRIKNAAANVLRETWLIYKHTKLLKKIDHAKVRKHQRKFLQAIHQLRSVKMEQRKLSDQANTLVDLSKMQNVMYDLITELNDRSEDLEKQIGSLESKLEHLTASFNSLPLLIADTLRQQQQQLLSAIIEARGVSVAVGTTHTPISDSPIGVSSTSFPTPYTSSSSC
In experiment [4] the target is Small conductance calcium-activated potassium channel protein 2 (Rattus norvegicus, UniProt P70604). The experiment in a line: Inhibition of cloned rat SK2 channel expressed in human HEK293 cells by patch clamp assay in the presence of 1 uM intracellular Ca2+. (The patch-clamp technique gives a direct electrical read-out from membranes.)
Sequence of Small conductance calcium-activated potassium channel protein 2 (Rattus norvegicus, UniProt P70604) (P70604 whole entry): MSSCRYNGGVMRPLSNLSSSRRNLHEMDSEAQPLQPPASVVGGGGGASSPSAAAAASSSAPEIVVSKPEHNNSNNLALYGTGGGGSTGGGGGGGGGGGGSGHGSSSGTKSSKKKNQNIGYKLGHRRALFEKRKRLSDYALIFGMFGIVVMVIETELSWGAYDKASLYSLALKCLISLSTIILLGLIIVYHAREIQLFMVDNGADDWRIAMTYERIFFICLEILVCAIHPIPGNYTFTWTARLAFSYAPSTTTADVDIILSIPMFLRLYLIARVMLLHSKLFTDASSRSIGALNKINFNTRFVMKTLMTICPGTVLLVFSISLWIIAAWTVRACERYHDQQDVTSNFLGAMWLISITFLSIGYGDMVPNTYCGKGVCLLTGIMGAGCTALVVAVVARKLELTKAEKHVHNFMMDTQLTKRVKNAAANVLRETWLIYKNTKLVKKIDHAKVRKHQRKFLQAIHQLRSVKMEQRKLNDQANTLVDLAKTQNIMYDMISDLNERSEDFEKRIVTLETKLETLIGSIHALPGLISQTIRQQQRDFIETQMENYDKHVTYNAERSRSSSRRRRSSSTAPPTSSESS
Experiment [5] concerns the target T2, Small conductance calcium-activated potassium channel protein 3. The experiment is described as follows: Inhibition of cloned human SK3 channel expressed in human HEK293 cells by patch clamp assay in the presence of 1 uM intracellular Ca2+.

As to `CC(C)c1cccc2c1C(Cc1cccc(CC3c4c(cccc4C(C)C)CCN3C)c1)N(C)CC2` (racemic), in experiment [1], the inhibition (in general, the percentage by which the read-out fell short of the control) amounted to 41%.

Turning to `CC(C)c1cccc2c1C(Cc1ccc(CC3c4c(cccc4C(C)C)CCN3C)cc1)N(C)CC2` (racemic), the inhibition in experiment [1] worked out at 41%.

For the compound `CC(C)c1cccc2cc[n+](C)c(Cc3ccc(Cc4c5c(C(C)C)cccc5cc[n+]4C)cc3)c12`, the Ki (as a rule, a measure of affinity in units of concentration, obtained from inhibition or displacement) in experiment [2] came to 397 nM; in experiment [3] it was 1270 nM.

In the case of `CC(C)c1cccc2cc[n+](C)c(Cc3cccc(Cc4c5c(C(C)C)cccc5cc[n+]4C)c3)c12`, the 50% inhibitory concentration (IC50) (as a rule, the point on the concentration scale where inhibition reaches its midpoint) in experiment [4] amounted to 1600 nM; in experiment [5], 2970 nM. Also, the Ki in experiment [2] is 90 nM; in experiment [3] it was 46 nM.

Take `CC(C)c1cccc2cc[n+](C)c(CCCCCc3c4c(C(C)C)cccc4cc[n+]3C)c12`: the Ki is 878 nM in experiment [2] and 575 nM in experiment [3].

Turning to `CC(C)c1cccc2c1C(CCCC1c3c(cccc3C(C)C)CCN1C)N(C)CC2` (racemic), the inhibition in experiment [1] amounted to 41%.

As to `CC(C)c1cccc2cc[n+](C)c(CCCc3c4c(C(C)C)cccc4cc[n+]3C)c12`, the values for the Ki in experiment [2] and in experiment [3] were 593 nM and 837 nM, respectively.

For the compound `CC(C)c1cccc2cc[n+](C)c(CCCCc3c4c(C(C)C)cccc4cc[n+]3C)c12`, the inhibitory constant (Ki) worked out at 194 nM in experiment [2] and 214 nM in experiment [3].

For `CC(C)c1cccc2c1C(CCCCC1c3c(cccc3C(C)C)CCN1C)N(C)CC2` (racemic), the inhibition in experiment [1] was 41%.

As for `CC(C)c1cccc2c1C(CCCCCC1c3c(cccc3C(C)C)CCN1C)N(C)CC2` (racemic), the inhibition in experiment [1] was found to be 41%.
